Experimental data reported in PubChem BioAssay AID687040 (Broad Institute, 2013).
Active and inactive are the calls of the source.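 Rule for the calls: active = fitted curve hits 40% activity increase at a dose no higher than the top valid tested dose; inconclusive = flat curve at 30 to 70% activity, or poor fit; inactive = the rest.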

What was measured:
[1] = system: Huh7 psiCHECK-miR122 Renilla luciferase reporter, 48 h; experiment: miR-122 inhibitors in reporter cells, dose response, cell-based, Huh7-psiCHECK-miR122, luminescence, dry powder (AID 687040)
[2] = as above; details: Huh7 psiCHECK-miR122 Renilla luciferase reporter, 48 h; at 35 µM (top of the series)

SMILES | AC40 [1] | activity increase (miR-122 inhibition) [2]
O=C(Nc1ccc2ccccc2c1)c1ccc(Cl)cc1Cl | > 35000 nM (inactive) | 
COc1cc(C)c(C(C)C)cc1S(=O)(=O)n1cnc(C)c1 | 4600 nM | 
Cc1ccc(C)c(S(=O)(=O)Nc2ccc3cn[nH]c3c2)c1 | 1540 nM | 
Cc1cccc(NS(=O)(=O)c2cc3c(cc2C)NC(=O)CO3)c1 | 2650 nM | 
COc1cccc(N2CCN(C(=O)c3oc4ccccc4c3NC(=O)CCc3cc(OC)no3)CC2)c1 | 2390 nM | 
Cc1cc(S(=O)(=O)NC2CCCCC2)c(C)s1 | 2040 nM | 
Cc1ccc(C)c(S(=O)(=O)Nc2ccc(-n3cnnn3)cc2)c1 | 271 nM | 
COc1ccc(C)cc1NS(=O)(=O)c1ccc2c(c1)N(C)CCO2 | 2650 nM | 
COc1ccc(S(=O)(=O)NCCN2CCOCC2)c2ccccc12 | 1600 nM | 
O=S(=O)(c1ccc2c(c1)CCCN2)N1CCC[C@@H]2CCCC[C@H]21 | 6940 nM | 
CN1C(=O)c2cccc3c(S(=O)(=O)NCCc4ccccc4)ccc1c23 | 300 nM | 
COC(=O)c1cc(S(=O)(=O)Nc2cc(OC)cc(OC)c2)cn1C | 3190 nM | 
Cc1cc(Cl)c(Cl)cc1S(=O)(=O)NCCCn1ccnc1 | 1890 nM | 
Cc1cc(C)c(S(=O)(=O)NC(C)C)c(C)c1-n1cnnn1 | 1720 nM | 
CCOc1cc(C)c(S(=O)(=O)NC2CCCCC2)cc1C | 1240 nM | 
CCCCNS(=O)(=O)c1ccc2nc(-c3cccnc3)cc(C(=O)NC(C)CC)c2c1 (centres undefined) | 274 nM | 
Cc1ccc(C(=O)C2Oc3ccccc3C3CC(c4ccc(C)cc4)=NN23)cc1 (centres undefined) | 831 nM | 

SMILES | AC40 [1] | activity increase (miR-122 inhibition) [2]
Cc1cc(C)c(S(=O)(=O)NC2CC3CCC2C3)c(C)c1 (centres undefined) | 792 nM | 
Cc1ccc(C(C)C)cc1S(=O)(=O)Nc1cccnc1 | 1790 nM | 
O=C(Nc1ccc(N2CCOCC2)c(S(=O)(=O)Nc2cc(Cl)ccc2Cl)c1)c1cccnc1 | 761 nM | 
Cc1ccc(NS(=O)(=O)c2cc(C(=O)NCc3ccccn3)ccc2Cl)cc1C | 2270 nM | 
Nc1c(S(=O)(=O)c2cccs2)c2nc3ccccc3nc2n1Cc1ccccc1 | 1250 nM | 
COc1ccc(S(=O)(=O)Nc2ccc(OC(F)F)cc2)c2cccnc12 | 1430 nM | 
O=S(=O)(Nc1cccc2[nH]ncc12)c1ccc(F)c2ncccc12 |  | 6.99% (inactive)
Cc1cc(C(C)(C)C)cc(S(=O)(=O)NCCO)c1C | 1260 nM | 
COc1ccc(C(C)(C)C)cc1S(=O)(=O)NCC1CCCO1 (centres undefined) | 456 nM | 
CCOc1ccccc1N1CCN(C(=O)c2cccc(-c3ccc(O)cc3)c2)CC1 | < 260 nM | 
S=C(Nc1ccc(Cl)cc1Cl)NC1CCCCC1 | 4180 nM | 
CCN(CC)C(=O)CN(c1cc2c(cc1OC)oc1ccccc12)S(=O)(=O)c1ccccc1 | 2290 nM | 
O=C(CN1CCOCC1)Nc1ccc(Br)cc1C(=O)c1ccccc1 | 1430 nM | 
CCOc1ccc(C)cc1S(=O)(=O)NC1CCCCC1 | 394 nM | 
CC1CCCCN1C(=O)c1cc2nc(-c3ccccc3)cc(-c3ccccc3)n2n1 (centres undefined) | 925 nM | 
Cc1cc(C)c(C)c(S(=O)(=O)NC2CCCCC2)c1C | 507 nM | 
Cc1ccc(S(=O)(=O)Nc2ccc3c4c(cccc24)CC3)c(C)c1 | 3660 nM | 
